Activity calls are given as the source filed them.
Assays:
SUMO-activating enzyme [1] = biological target: T1, SUMO-activating enzyme (Homo sapiens, UniProt Q9UBT2); assay: blockers of UBC9-mediated SUMO conjugation – biochemical, AlphaScreen, SUMOylation inhibitor project, confirmation (AID 2018); format: functional
[2] = biological target: Protein-tyrosine kinase 2-beta (Homo sapiens, UniProt Q14289);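 note: potency of inhibitors of PYK2 kinase phosphorylation of poly-GT substrate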
SUMO-activating enzyme [3] = biological target: T1, SUMO-activating enzyme; assay: blockers of SAE1/SAE2–UBC9 SUMO transfer – biochemical, HTRF, uHTS, primary screen (AID 2006); format: protein-complex assay
[4] = biological target: Potassium voltage-gated channel subfamily KQT member 2 (Rattus norvegicus, UniProt O88943); assay: potentiation of rat KCNQ2 current – cell-based, retigabine-insensitive compounds, dose response (AID 2654); format: functional
[5] = biological target: T2, Low molecular weight phosphotyrosine protein phosphatase (Homo sapiens, UniProt P24666); format: functional; conditions: read-out: IC50_Mean;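 note: Dose-response confirmation assay measuring inhibition of LMPTP enzyme activity by fluorescence intensity read-out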
T2 sequence (P24666 whole entry): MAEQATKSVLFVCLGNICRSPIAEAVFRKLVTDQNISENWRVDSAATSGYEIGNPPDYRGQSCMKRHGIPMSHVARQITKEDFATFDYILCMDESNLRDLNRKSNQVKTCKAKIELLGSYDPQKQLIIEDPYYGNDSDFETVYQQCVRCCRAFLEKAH

[6] = biological target: T3, Tyrosine-protein phosphatase non-receptor type 7 (Homo sapiens, UniProt P35236); assay: Dose Response confirmation of compounds that inhibit HePTP. [Related pubchem assays (depositor defined):AID1059, AID1661, AID2085]; format: functional
T3 sequence (P35236 whole entry): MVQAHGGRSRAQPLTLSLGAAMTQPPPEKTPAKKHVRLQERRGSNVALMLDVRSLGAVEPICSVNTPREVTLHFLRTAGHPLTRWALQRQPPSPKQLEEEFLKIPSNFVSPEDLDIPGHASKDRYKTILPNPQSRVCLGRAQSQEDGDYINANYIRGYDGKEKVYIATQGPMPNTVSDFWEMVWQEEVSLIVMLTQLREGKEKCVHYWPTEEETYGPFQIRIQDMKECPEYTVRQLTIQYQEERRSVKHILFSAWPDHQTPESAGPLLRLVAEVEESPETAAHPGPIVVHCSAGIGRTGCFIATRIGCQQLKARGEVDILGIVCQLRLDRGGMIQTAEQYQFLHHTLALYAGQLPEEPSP

[7] = biological target: Dual specificity protein phosphatase 3 (Homo sapiens, UniProt P51452); assay: Dose Response Confirmation of compounds that inhibit VHR1 in Fluorescent Assay. [Related pubchem assays (depositor defined):AID1661, AID1878]; format: functional
Caspase-3 = biological target: T4, Caspase-3 (Homo sapiens, UniProt P42574); assay: activation of caspase-3 zymogen – biochemical, absorbance, dose response (AID 489014)
T4 sequence (P42574 whole entry): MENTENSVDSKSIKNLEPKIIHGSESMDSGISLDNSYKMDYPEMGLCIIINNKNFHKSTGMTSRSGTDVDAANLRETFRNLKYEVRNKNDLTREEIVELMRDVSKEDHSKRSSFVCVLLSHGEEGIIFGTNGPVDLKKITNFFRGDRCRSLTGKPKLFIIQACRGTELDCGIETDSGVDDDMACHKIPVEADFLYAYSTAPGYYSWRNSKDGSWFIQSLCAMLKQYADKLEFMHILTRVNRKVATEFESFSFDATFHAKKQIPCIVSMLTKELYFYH

Caspase-7 = Caspase-7 (Homo sapiens, UniProt P55210); assay: activation of caspase-7 zymogen – biochemical, absorbance, counter-screen for procaspase-3 activator project, dose response (AID 489013)
[8] = biological target: Melanin-concentrating hormone receptor 1 (Homo sapiens, UniProt Q99705); assay: Late-stage fluorescence-based counterscreen for antagonists of the G-protein coupled receptor 7 (GPR7): cell-based dose response assay to identify antagonists of the melanin-concentrating hormone receptor 1 (MCHR1). [Related pubchem assays (depositor defined):AID1861, AID1880, AID1952, AID2148, AID2251, AID2257, AID485339]; format: functional;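 note: stimulated with 30 nM MCH peptide agonist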
[9] = biological target: T5, Voltage-gated N-type calcium channel alpha-1B subunit/Amyloid beta A4 precursor protein-binding family A member 1 (Homo sapiens, UniProt Q00975+Q02410); assay: disruptors of Mint-PDZ/N-type channel peptide interaction – biochemical, HTRF, set 2, SAR follow-up (AID 434980); format: functional
[10] = biological target: T5, Voltage-gated N-type calcium channel alpha-1B subunit/Amyloid beta A4 precursor protein-binding family A member 1; format: protein assay
[11] = biological target: Eukaryotic translation initiation factor 4E (Mus musculus, UniProt P63073); assay: blockers of eIF4G binding by eIF4E – biochemical, TR-FRET, dose response (AID 855); format: functional;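 note: potency for disrupting eIF4E binding to eIF4GI seen as loss of FRET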
Large T antigen = Large T antigen (Simian virus 40, UniProt P03070); format: functional, Betapolyomavirus macacae;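 note: Confirmatory-stage PubChem screen for compounds that inhibit SV40 T antigen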
[12] = biological target: Phosphoethanolamine/phosphocholine phosphatase (Homo sapiens, UniProt Q8TCT1); assay: SAR assay for compounds that inhibit PHOSPHO1. [Related pubchem assays (depositor defined):AID1545, AID1565, AID1574]
[13] = biological target: T5, Voltage-gated N-type calcium channel alpha-1B subunit/Amyloid beta A4 precursor protein-binding family A member 1; format: protein assay; remark: listed apart in the source
[14] = biological target: Glucose-6-phosphate 1-dehydrogenase (Homo sapiens, UniProt P11413); assay: inhibition of Homo sapiens G6PD, dose series – biochemical, fluorescence, selectivity assay for P. falciparum G6PD inhibitor project, dose response (AID 504792); format: functional
[15] = biological target: T5, Voltage-gated N-type calcium channel alpha-1B subunit/Amyloid beta A4 precursor protein-binding family A member 1; assay: disruptors of Mint-PDZ/N-type channel peptide interaction – biochemical, HTRF, SAR follow-up (AID 2489); format: functional
[16] = biological target: T6, Mannose-6-phosphate isomerase (Homo sapiens, UniProt P34949); assay: MPI inhibition at elevated mannose 6-phosphate – biochemical, fluorescence intensity, high mannose 6-phosphate, primary screen (AID 1220)
T6 sequence (P34949 whole entry): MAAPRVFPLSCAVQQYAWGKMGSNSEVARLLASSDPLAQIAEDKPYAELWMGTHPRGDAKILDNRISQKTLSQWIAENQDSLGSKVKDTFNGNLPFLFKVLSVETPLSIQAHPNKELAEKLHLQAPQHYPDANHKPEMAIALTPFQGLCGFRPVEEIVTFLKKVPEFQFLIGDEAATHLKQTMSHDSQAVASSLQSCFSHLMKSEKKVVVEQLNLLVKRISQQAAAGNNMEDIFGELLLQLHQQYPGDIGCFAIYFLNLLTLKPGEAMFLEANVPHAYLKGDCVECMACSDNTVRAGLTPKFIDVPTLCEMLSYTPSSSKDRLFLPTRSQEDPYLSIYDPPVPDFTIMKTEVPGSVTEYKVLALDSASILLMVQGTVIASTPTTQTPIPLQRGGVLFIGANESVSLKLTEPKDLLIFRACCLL

Caspase-6 = biological target: T7, Caspase-6 (Homo sapiens, UniProt P55212); assay: inhibition of CASP6 peptide cleavage – biochemical, VEID-R110 fluorescence, cherry-pick, dose response (AID 720632)
T7 sequence (P55212 whole entry): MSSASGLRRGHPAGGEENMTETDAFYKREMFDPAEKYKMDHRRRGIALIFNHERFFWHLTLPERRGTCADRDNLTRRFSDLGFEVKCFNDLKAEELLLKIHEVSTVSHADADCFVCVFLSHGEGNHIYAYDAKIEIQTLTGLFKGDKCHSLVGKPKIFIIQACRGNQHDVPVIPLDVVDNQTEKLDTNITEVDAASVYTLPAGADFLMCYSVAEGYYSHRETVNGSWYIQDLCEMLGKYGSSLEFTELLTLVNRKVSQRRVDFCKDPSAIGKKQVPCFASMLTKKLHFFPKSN

[17] = biological target: T8, Carboxy-terminal domain RNA polymerase II polypeptide A small phosphatase 1 (Homo sapiens, UniProt Q9GZU7); assay: CTDSP1 inhibitors, concentration-response, biochemical, absorbance readout, ultra-high-throughput screen actives (AID 540297); format: functional
T8 sequence (Q9GZU7 whole entry): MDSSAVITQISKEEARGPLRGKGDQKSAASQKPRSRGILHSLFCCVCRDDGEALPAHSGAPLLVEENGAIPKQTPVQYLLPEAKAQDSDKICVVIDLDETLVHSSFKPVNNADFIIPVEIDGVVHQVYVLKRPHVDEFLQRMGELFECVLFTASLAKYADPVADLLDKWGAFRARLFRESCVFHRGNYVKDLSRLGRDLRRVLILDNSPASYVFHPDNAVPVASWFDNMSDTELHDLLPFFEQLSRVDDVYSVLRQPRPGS

Bcl-2-like protein 1 = Bcl-2-like protein 1 (Homo sapiens, UniProt Q07817); assay: blockers of BCLXL peptide binding – biochemical, fluorescence polarization, 1536-well, selectivity assay for MCL1 inhibitor project, dose response (AID 2218)
[18] = biological target: Induced myeloid leukemia cell differentiation protein Mcl-1 (Homo sapiens, UniProt Q07820); assay: blockers of MCL1 binding to BIM peptide – biochemical, fluorescence polarization, BIM-BH3 peptide, 1536-well, dose response (AID 2217)

T5 sequence (Q00975 whole entry): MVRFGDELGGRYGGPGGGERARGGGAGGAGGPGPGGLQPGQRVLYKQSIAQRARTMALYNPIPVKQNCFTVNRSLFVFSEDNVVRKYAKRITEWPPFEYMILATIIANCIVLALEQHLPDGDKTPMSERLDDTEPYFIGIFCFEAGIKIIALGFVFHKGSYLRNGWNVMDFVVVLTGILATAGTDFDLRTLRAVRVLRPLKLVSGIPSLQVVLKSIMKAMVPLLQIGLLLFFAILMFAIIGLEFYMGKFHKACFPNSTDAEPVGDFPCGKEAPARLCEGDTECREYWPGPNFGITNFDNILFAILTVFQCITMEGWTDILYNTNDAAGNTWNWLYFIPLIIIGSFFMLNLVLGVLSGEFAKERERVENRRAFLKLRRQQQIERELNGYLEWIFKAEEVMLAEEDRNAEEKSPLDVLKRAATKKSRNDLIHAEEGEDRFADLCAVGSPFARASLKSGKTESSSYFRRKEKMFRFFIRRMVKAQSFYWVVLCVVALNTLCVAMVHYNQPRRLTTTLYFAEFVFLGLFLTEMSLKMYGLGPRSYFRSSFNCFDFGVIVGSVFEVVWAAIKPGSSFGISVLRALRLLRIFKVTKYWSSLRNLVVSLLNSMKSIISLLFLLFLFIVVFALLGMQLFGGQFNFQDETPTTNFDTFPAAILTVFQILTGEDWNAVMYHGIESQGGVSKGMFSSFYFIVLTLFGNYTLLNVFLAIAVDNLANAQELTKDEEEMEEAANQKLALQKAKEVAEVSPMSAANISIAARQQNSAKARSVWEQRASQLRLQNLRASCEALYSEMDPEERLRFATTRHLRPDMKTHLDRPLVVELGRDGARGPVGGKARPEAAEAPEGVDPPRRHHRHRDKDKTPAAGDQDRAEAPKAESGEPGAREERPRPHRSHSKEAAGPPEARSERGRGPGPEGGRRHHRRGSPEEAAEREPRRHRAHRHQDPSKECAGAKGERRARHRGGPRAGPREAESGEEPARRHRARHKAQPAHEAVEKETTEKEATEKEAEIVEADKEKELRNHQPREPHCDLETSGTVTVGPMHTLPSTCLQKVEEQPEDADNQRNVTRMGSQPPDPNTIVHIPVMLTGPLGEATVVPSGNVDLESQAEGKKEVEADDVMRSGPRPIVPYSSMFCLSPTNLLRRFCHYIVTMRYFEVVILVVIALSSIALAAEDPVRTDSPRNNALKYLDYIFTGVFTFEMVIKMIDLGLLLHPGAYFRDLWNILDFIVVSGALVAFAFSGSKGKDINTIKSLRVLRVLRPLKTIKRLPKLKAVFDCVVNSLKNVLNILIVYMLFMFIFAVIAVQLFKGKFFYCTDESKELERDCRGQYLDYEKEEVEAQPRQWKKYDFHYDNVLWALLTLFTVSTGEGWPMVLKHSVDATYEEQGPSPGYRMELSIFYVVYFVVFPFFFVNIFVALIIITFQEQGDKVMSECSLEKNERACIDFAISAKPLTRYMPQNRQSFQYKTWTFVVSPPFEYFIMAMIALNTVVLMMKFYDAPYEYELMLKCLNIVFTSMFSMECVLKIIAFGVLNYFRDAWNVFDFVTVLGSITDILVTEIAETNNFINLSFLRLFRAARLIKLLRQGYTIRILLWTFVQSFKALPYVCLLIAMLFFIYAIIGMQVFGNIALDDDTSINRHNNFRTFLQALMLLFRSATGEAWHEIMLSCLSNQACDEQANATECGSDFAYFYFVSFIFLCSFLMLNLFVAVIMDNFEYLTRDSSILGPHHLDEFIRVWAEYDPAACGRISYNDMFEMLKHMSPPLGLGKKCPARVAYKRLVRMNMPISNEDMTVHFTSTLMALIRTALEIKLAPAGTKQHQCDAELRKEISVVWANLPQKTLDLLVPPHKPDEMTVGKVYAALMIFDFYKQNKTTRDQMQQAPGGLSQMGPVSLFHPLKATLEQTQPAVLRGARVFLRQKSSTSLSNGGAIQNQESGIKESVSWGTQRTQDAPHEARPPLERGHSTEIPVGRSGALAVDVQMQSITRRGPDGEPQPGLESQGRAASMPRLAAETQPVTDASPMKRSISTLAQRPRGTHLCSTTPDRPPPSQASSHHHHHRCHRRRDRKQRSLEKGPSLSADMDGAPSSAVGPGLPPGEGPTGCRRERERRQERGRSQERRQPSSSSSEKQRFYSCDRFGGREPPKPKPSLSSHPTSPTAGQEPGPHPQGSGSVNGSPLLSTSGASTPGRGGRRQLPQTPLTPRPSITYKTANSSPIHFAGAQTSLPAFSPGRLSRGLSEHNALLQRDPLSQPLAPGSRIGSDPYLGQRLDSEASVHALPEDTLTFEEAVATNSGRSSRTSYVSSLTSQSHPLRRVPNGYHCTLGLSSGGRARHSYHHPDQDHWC
T5 sequence (Q02410 whole entry): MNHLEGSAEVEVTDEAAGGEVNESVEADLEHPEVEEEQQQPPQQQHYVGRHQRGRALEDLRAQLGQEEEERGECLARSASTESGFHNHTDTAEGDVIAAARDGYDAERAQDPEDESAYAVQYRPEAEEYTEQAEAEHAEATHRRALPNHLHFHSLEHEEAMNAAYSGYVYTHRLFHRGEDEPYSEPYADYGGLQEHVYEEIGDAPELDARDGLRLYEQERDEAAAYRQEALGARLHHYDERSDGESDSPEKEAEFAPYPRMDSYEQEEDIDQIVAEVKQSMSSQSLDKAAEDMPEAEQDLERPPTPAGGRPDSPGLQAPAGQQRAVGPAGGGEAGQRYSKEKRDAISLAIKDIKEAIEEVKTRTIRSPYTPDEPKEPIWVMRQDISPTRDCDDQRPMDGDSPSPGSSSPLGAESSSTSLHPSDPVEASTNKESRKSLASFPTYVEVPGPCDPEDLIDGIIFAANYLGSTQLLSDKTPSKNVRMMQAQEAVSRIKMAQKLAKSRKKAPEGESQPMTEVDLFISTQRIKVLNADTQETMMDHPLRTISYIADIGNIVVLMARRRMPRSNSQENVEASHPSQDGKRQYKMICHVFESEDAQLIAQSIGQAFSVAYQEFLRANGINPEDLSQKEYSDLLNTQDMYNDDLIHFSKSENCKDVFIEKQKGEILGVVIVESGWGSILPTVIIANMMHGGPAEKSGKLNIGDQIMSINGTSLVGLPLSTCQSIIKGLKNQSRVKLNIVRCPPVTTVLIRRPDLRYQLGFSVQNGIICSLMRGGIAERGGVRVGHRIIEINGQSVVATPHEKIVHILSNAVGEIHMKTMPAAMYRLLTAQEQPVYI
T1 sequence (Q9UBE0 whole entry): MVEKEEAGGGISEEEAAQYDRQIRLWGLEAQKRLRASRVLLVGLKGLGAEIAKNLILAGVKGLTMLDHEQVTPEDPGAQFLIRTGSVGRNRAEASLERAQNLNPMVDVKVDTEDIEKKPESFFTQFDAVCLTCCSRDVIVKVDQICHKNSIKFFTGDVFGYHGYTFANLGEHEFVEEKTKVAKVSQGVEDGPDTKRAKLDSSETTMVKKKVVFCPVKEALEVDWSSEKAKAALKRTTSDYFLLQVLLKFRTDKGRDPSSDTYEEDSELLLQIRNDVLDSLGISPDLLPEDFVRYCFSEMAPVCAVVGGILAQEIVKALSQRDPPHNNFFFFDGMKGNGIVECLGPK
T1 sequence (Q9UBT2 whole entry): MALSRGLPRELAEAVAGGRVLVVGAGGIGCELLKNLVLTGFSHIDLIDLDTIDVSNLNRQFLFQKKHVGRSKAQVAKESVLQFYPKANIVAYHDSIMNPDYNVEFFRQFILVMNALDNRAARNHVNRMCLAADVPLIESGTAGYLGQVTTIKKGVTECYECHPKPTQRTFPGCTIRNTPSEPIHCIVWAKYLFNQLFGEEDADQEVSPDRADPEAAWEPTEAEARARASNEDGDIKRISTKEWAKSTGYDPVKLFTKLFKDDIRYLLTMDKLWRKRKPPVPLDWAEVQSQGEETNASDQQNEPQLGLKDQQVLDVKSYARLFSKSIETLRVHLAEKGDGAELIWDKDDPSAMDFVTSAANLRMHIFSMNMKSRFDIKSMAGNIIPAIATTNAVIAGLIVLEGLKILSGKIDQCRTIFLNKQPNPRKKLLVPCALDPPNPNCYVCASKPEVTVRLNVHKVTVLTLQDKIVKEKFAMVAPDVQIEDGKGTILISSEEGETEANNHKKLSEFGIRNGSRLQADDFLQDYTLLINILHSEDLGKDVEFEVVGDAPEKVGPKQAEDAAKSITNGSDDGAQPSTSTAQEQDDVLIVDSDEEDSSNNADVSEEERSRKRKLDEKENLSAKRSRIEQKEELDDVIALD
Chain of Potassium voltage-gated channel subfamily KQT member 2 (O88943 whole entry): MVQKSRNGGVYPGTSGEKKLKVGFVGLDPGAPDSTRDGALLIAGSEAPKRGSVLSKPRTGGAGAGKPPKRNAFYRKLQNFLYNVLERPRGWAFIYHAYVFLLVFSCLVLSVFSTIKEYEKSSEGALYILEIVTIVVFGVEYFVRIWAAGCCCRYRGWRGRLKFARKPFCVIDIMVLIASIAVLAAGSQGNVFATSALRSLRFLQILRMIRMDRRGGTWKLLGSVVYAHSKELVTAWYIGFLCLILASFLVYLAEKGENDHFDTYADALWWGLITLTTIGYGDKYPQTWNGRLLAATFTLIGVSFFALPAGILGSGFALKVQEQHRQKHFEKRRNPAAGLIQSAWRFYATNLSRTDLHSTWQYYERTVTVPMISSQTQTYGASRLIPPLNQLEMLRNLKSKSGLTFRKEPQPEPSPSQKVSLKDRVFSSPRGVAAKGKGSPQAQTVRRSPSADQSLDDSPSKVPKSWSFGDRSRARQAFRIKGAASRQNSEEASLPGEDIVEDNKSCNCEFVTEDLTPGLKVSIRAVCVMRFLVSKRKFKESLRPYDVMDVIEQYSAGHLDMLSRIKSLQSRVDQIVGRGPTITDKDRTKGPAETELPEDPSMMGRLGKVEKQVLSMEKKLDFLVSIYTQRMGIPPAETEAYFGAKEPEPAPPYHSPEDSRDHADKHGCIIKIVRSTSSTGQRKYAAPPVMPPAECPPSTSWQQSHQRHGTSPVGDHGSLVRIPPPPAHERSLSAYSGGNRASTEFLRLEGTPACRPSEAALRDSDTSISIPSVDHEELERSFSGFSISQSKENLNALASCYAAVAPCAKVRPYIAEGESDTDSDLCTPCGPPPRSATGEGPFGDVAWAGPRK

In the case of O=C(Cn1c2ccccc2c(=O)c2ccccc21)N/N=C/c1cc([N+](=O)[O-])ccc1N1CCCCCC1, the IC50 (SUMO-activating enzyme [1]) is reported as 6.12 µM (active), the IC50 [2] is reported as 1.94 µM (active) and the IC50 (SUMO-activating enzyme [3]) is reported as 24.9 µM (active).
For COc1ccc(NC(=O)Nc2cccnc2)cc1, the EC50 [4] was 203 µM (active).
In the case of O=C(Nc1ccncc1)c1cc(-c2ccccn2)nc2ccc(Br)cc12, the IC50 [5] is reported as 26.3 µM (inactive), the IC50 [6] is reported as 1.52 µM (active) and the IC50 [7] is reported as 9.44 µM (active).
With CC1(C)Cc2c(c(N3CCCC3)nc3sc(C(=O)Nc4ccccc4)c(N)c23)CO1 the EC50 (Caspase-3) was > 85.3 µM (inactive) and the EC50 (Caspase-7) was > 85.3 µM (inactive).
With COc1ccc(Oc2c(Cl)cnn(-c3ccc(C(C)C)cc3)c2=O)cc1 the IC50 [8] was 3.1 µM (active).
With CNc1nc(-c2ccccc2)[n+](-c2ccc(C)cc2)s1 the IC50 [9] was 0.278 µM (active), the IC50 [10] was 2.48 µM (active) and the IC50 [11] was 1.49 µM (active). The IC50 (Large T antigen) was 39 µM (active), the IC50 [12] was 4.47 µM (inactive) and the IC50 [13] was 1.4 µM (active). For the same molecule, the IC50 [14] was 10.5 µM (active), the IC50 [15] was < 0.11 µM (active) and the IC50 [16] was 6.89 µM (active).
In the case of COc1cccc(C(=O)OCC(=O)Nc2sc3c(c2C(N)=O)CCC3)c1O, the AC50 (Caspase-6) is reported as 17.7 µM (active), the IC50 [17] is reported as 3.73 µM (active) and the IC50 (Bcl-2-like protein 1) is reported as > 109 µM (not active). For the same molecule, the IC50 [18] was 50.2 µM (not active).
For O=C1c2ccccc2C(Nc2cccnc2)N1Cc1ccc2c(c1)OCO2 (centres undefined), the IC50 (cells) was 21.6 µM (active).

From ChEMBL document CHEMBL1201862, “PubChem BioAssay data set” (2004)
